Columns and labels:
[1] = tested on: TNBC cell lines MDA-MB-231, MDA-MB-468, SUM159; assay: MTT cell viability assay, 24 h exposure, three TNBC cell lines; assay type: cell-based
Experimental: Cell Viability Assay for Compounds 1-8: The cytotoxicity for compounds 1-8 was assessed in three Triple Negative Breast Cancer cell lines: MDA-MB-231, MDA-MB-468, an SUM159. Cells were grown to 80% confluency in T75 flasks. Media was discarded and trypsin added for 5 minutes to detach cells. Media was added to neutralize the trypsin and mixture was transferred to centrifuge tube. After centrifugation at 2000 RPM for 5 minutes, the pellet was washed with PBS and resuspended in 2 mL appropriate media. Cell density was assessed via hemocytometer and solution diluted to 40,000 cells/mL. A 96-well clear bottom plate was prepared by adding media to rows 1 and 8 and columns 1, 2, 11, and 12 to prevent evaporation from impacting sample wells. Cells were plated in the inner wells with 100 μL per well (4,000 cells/well). Plates were placed in the incubator at 37° C. and 5-10% CO2 overnight to allow cells to acclimate and adhere.
Compounds 1-8 were prepared as 80 mM stock solutions in DMSO. The stock was diluted 20 μL to 4 mL with the appropriate media to yield a new stock concentration of 400 μM and DMSO concentration of 0.5% v/v. This stock was used for six serial dilutions (1/2×) to obtain a range of concentrations from 6.25 to 400 μM. […]
Plates were removed from the incubator and treatment solutions removed. […] Plates were then read on a Biotek Synergy H1 Plate Reader at 570 nm (peak absorbance). […]

SUM159 = assay: Colony formation assay in SUM159; assay type: cell-based; details: SUM159, half and full IC50 concentrations, 6 days
Experimental: The ability of compounds 1, 7A, and 7B to prevent colony formation was assessed in SUM159, a Triple Negative Breast Cancer cell line. Cells were grown to 80% confluency in T75 flasks in DMEM supplemented with 10% FBS, 1% amphotericin, 1% penicillin/streptomycin, and 5 μg/mL insulin. Media was discarded and trypsin added for 5 minutes to detach cells. Media was added to neutralize the trypsin and mixture was transferred to centrifuge tube. After centrifugation at 2000 RPM for 5 minutes, the pellet was washed with PBS and resuspended in 2 mL of above media. Cell density was assessed via hemocytometer and solution diluted to 2,000 cells/mL. Cells were plated in 6-well clear bottom plates at 2,000 cells/well. Treatment conditions included control (0.5% DMSO), and compounds 1, 7A, and 7B at both half and full IC5. concentrations, All treatments were plated in triplicate for a total of 21 wells used. Plates were placed in the incubator at 37° C. and 5-10% CO2 for six days. […]
(§1) To further characterize the improved bioactivity of compounds 7A and 7B to compound 1, colonogenic and mammmosphere formation assays were performed in TNBC cell line SUM159 at full and half IC50 values (FIG. 7A-7B). […] Using colony formation assay, we evaluated the antiproliferative effects of 7A in SUM159 cells. […]

SUM159 mammosphere = assay: Mammosphere formation assay in SUM159; assay type: cell-based; details: SUM159, half or full IC50 concentration, 6 days
Experimental: The ability of Compounds 1, 7A, and 7B to prevent mammosphere formation was assessed in SUM159, a Triple Negative Breast Cancer cell line. Cells were grown to 80% confluency in T75 flasks in DMEM supplemented with 10% FBS, 1% amphotericin, 1% penicillin/streptomycin, and 5 μg/mL insulin, Media was discarded and trypsin added for 5 minutes to detach cells. Media was added to neutralize the trypsin and mixture was transferred to centrifuge tube. After centrifugation at 2000 RPM for 5 minutes, the pellet was washed with PBS and resuspended in 2 mL mammosphere media. Mammosphere media consists of MammoCult Human Medium (StemCell Technologies) supplemented with Heparin ([…], StermCellTechnologies) and Hydrocortisone (0.48 μg/ml, StemCell Technologies). Cell density was assessed via hemocytometer and solution diluted to 8,000 cells/mL in mammosphere media. A 24-well ultra-low-attachment clear bottom plate was prepared. Cells were plated in all wells with 500 μL per well (4,000 cells/well). […]
as §1

[2] = tested on: TNBC cells, including MDA-MB-231 and MDA-MB-468 cells; details: 24 h; read-out: activity of machilin D (comparison value); cited from earlier work

Row | IC50 ([1]; 24 h exposure, range across MDA-MB-468, MDA-MB-231, SUM159, diastereomeric mixture) | Compound | cytotoxicity (IC50) comparison of diastereomers ([1]; MTT, all three TNBC cell lines) | colony formation (SUM159) | mammosphere growth (SUM159 mammosphere) | IC50 [2]
1 | – | C/C=C/c1ccc(O[C@@H](C)[C@@H](OCC(C)C)c2ccc(O)c(OC)c2)c(OC)c1 (racemic) [Compound 7A] | significantly improved cytotoxicity values over 7B | colony formation was inhibited | effective inhibition | –
2 | – | C/C=C/c1ccc(O[C@@H](C)[C@@H](O)c2ccc(O)c(OC)c2)c(OC)c1 [machilin D] | – | – | – | ~100 µM
3 | 167 to 180 µM | machilin C/D [Compound 1] | – | slow colony formation | slow colony formation and mammosphere growth | –

Source: patent US20250090480A1, “UNIQUE ANALOGS OF NATURAL LIGNANS USEFUL FOR TREATING TRIPLE NEGATIVE BREAST CANCER” (University of Kentucky Research Foundation, priority 2023, published 2025)
